We go through 2 compounds from publication PMC3638593, “1,4-dihydroxy-2-naphthoic Acid Induces Apoptosis in Human Keratinocyte: Potential Application for Psoriasis Treatment” (Evidence-based Complementary and Alternative Medicine : eCAM, 2013).

Holding throughout (type): cell-based, human
Data set [1] can be described thus: Proliferation/cytotoxicity assay (sulphorhodamine B) on Hs-68 fibroblast. To be noted: human, Hs-68 foreskin fibroblast cells; Hs-68 fibroblast, incubation 72 h; read-out: IC50 on growth (cytotoxic effect).
A further data set relates to Hs-68 cells. The data set is described as above. The note with it: Hs-68, compared with dithranol.
Data set [2] in a line: Proliferation/cytotoxicity assay (sulphorhodamine B) on PIG1 melanocyte. To be noted: human, PIG1 immortalized epidermal melanocyte cells; PIG1 melanocyte, incubation 72 h; read-out: IC50 on growth (cytotoxic effect).
The next data set deals with PIG1 cells. The description is as above. The note with it: PIG1, compared with dithranol.

Structures are written as SMILES. Several values for one entry are separate records, joined by “and”; a condition that tells them apart may be missing. Identical values can stand only once.

Consider `O=C(O)c1cc(O)c2ccccc2c1O` [DHNA, 1,4-dihydroxy-2-naphthoic acid], for which the half-inhibitory concentration (IC50) – broadly, the concentration at which inhibition is half-maximal – at 72 h is 226 µM and 46.2 µg/mL in data set [1]; 24 µM and 4.9 µg/mL in data set [2]. The “less cytotoxicity on fibroblasts than dithranol” value with Hs-68 cells is given as ~ 8 times. In addition, the “less cytotoxicity on melanocytes than dithranol” value with PIG1 cells is given as ~ 10 times.

As to `O=C1c2c(O)cccc2Cc2cccc(O)c21` [Dithranol, dithranol, reference compound], the half-inhibitory concentration (IC50) at 72 h in data set [1] is 27.4 µM and 6.2 µg/mL; in data set [2], 2.34 µM and 0.53 µg/mL.
